In paper PMC6315388, “Azasulfurylpeptide Modulation of CD36-Mediated Inflammation Without Effect on Neovascularization” (Biomedicines, 2018):
Read-outs that look alike come from different tables or passages of the source. Marks after values point to notes of the source that are not given here. Starred links: 1 amine or outer side, 2 acyl side, 3 side chain; linkers in the order of their positions; H or OH if unused. Non-standard residues stand in square brackets, D forms with d. Residues, ends and D or L forms follow the SMILES beside them. aza(4-F)Phe = aza-4-fluorophenylalanine (alpha-carbon replaced by nitrogen, para-fluoro), O=C(N(Cc1ccc(F)cc1)N[*:1])[*:2]; X1 = O=C([C@@H](Cc1ccccc1)NS(=O)(=O)N(Cc1ccc(F)cc1)N[*:1])[*:2]; azaTyr = O=C(N(Cc1ccc(O)cc1)N[*:1])[*:2]

Key:
CD36 [1] = biological target: T1, CD36 (Rattus norvegicus, UniProt Q07969); test: Competition with [125I]-Tyr-Bpa-Ala-hexarelin tracer for CD36 binding on purified rat heart membranes; settings: purified membranes from rat heart, read-out: CD36 binding affinity IC50
T1 construct: purified membranes from rat heart as a source of CD36; from tissue; host or cells: rat heart (purified membranes)
T1 sequence (Q07969 whole entry): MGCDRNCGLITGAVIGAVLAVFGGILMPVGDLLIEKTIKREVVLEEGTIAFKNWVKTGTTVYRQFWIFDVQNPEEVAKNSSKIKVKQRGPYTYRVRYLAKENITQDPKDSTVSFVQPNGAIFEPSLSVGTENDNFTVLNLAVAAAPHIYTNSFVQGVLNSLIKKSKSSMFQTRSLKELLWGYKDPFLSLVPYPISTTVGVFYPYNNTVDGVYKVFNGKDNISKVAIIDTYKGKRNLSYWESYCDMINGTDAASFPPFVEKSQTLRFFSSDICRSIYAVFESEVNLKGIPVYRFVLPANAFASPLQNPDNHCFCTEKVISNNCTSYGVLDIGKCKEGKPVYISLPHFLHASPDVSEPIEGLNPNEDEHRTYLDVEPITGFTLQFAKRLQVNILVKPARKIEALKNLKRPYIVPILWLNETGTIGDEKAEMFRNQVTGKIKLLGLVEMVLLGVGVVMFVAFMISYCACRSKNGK
Method: The ability of [(4-F)AsF^4]-GHRP-6 (3c) to compete with the radiolabeled [^125I]-Tyr-Bpa-Ala-hexarelin used as tracer for CD36 binding was tested on purified membranes from rat heart as a source of CD36 [36].

[2] = tested on: NO overproduction in J774 macrophage cell line elicited by TLR-2 agonist (R-FSL-1); test: Modulation of TLR2 agonist (R-FSL-1)-induced overproduction of nitric oxide in J774 macrophage cell line (nitrite, DAN fluorescence); type: cell-based, murine; settings: J774 macrophages; for NO inhibition Fold of 1: 2 h pre-incubation, overnight stimulation with 300 ng/mL R-FSL-1; for Inhibitory effect on R-FSL-elicited NO production (in words): R-FSL-1
Method: The murine J774A.1 macrophage cell lines were obtained from American Type Cell Collection (ATCC #TIB-67), seeded at 1.5 × 10^5 cells/well in Dulbecco’s modified eagle media (DMEM) containing 100U/mL of penicillin (Pen) and 100 μg/mL of streptomycin (Strep) on a 48-well plate (Costar® #3548), and incubated at 37 °C with 5% CO2. After 2 h, the medium of adhered cells was changed to DMEM-Pen/Strep containing 0.2% of bovine serum albumin (BSA), and supplemented with either azasulfurylpeptide 3a–f or [azaK^6]-GHRP-6 as a negative control. After 2 h of pre-incubation, the cells were stimulated overnight with 300 ng/mL of R-FSL-1. Supernatants were collected for fluorescence determination of nitrite using 2,3-diaminonaphtalene (DAN). Briefly, 25 μL of sample was incubated with 0.5 μg of DAN in a 100 μL final volume of phosphate buffer (50 mM, pH 7.5) at rt in the dark. After 15 min, the reaction was stopped with 20 µL of NaOH (2.8N) and the plate was read using a fluorescence plate reader (TECAN® Safire, λexc 365 nm and λem 430 nm).

[3] = tested on: TNFα secretion in peritoneal macrophages; test: TNFα secretion by peritoneal macrophages stimulated with R-FSL-1 (ELISA); type: cell-based, C57BL/6 mice; settings: 1 µM peptide, 2 h pretreatment, R-FSL-1 300 ng/mL, NA: no activity
Method: (§1) Peritoneal macrophage cells from C57BL/6 mice were harvested from sterile DMEM cell-culture medium (Wisent # 319-005-CL), allowed to adhere for 1 h at 37 °C in a 5% CO2 atmosphere, and washed twice with PBS to remove non-adherent cells. Macrophages (0.5 × 10^6 cells/well) were plated in 48 well-culture plates with DMEM containing 0.2% of bovine serum albumin (BSA), pretreated for 2 h with azasulfurylpeptides 3b–e or [azaK^6]-GHRP-6 (1 µM), before stimulation with a TLR2 ligand: R-FSL-1 (Invivogen® #L7022) at 300 ng/mL interferon gamma (IFNγ R&D Systems® Minneapolis, MN, USA # 172-5201) at 20 ng/mL for 4 or 24 h. The supernatants were recovered, and ELISA (eBioscience® #88-7324; 88-7391) was performed to determine the levels of proinflammatory cytokine and chemokine (TNFα, MCP-1). The effect on NF-κB activation was documented on cell lysates after 0, 5, 10, 15 and 30 min stimulation with R-FSL1, using NF-κB p65/RelA specific ELISA-based assay (eBioscience® #85-86083). The results were expressed as mean ± SEM and analyzed statistically by a one-way analysis of variance (ANOVA) with a Dunnett as a post-test. Level of significance was set at P < 0.05.

[4] = tested on: subretinal IBA-1 positive cells (activated microglia/macrophages); test: Blue-light illumination model of retinal inflammation: IBA-1-positive cells in the subretinal space; type: in vivo; settings: ApoE−/− mice, 1000 lux blue light 5 d, 289 nmol/kg s.c. for 7 consecutive days, vs illuminated vehicle-treated mice, n = 3–5
Method: Apo E deficient (ApoE^−/−) mice were obtained from The Jackson Laboratory (Bar Harbor, ME, USA). Animals were housed under 12 h light/dark cycles and fed ad libitum with a standard rodent diet. All experimental procedures were done in accordance with the Animal Ethics Committee at Université de Montreal (CDEA, project 12-012 approved on 26 January 2013) and the Canadian Council on Animal Care guidelines for use of experimental animals.
Three to four-month-old ApoE^−/− mice were exposed to blue LED-light (Yescom USA, Inc., City Of Industry, CA, USA) for 5 d at 1000 lux illumination without previous dark-adaptation. For pupil dilatation, ophthalmic atropine solution 1% (Alcon, Fort Worth, TX, USA) was applied to both eyes daily. Aza- and azasulfurylpeptides 1, 2 and 3c or [azaK^6]-GHRP-6 (289 nmol/kg) were administered subcutaneously at 24 h following blue-light exposure for 7 consecutive days. At the end of the blue-light exposure period, the mice were maintained on a 12:12 h light: dark cycle for 3 days, before being sacrificed. Enucleated eyes were fixed in 4% paraformaldehyde (PFA) for 15 min at rt and sectioned at the limbus; the anterior segments were discarded. The posterior eye cups consisting of retinal pigment epithelium (RPE)/choroid/sclera complex were collected and prepared for immunofluorescence analysis.
RPE/choroid/sclera flat-mounts were treated with PBS solution containing 0.1% Triton 100× and 10% fetal bovine serum (FBS) or 5% BSA (saturation buffer) for 45 min. Specimens were incubated overnight at 4 °C with primary antibodies diluted in saturation buffer. Immunofluorescence was performed using polyclonal rabbit anti-IBA-1 as marker of activated cells. […] Flatmounts were analyzed using an IX81 Olympus fluorescence microscope (Richmond Hill, ON, Canada). […]
IBA-1–stained cells were counted on flatmounts from control and illuminated mice injected daily with 0.9% NaCl or with aza- and azasulfurylpeptides 1, 2 and 3c or [azaK^6]-GHRP-6 (289 nmol/kg). Cell numbers were expressed as the mean number of IBA-1–positive cells in subretinal space. […]

CD36 [5] = biological target: T1, CD36; settings: read-out: CD36 binding affinity IC50; cited from earlier work
[6] = tested on: MCP-1 secretion in peritoneal macrophages; test: MCP-1 secretion by peritoneal macrophages stimulated with R-FSL-1 (ELISA); type: cell-based, C57BL/6 mice; settings: 1 µM peptide, 2 h pretreatment, R-FSL-1 300 ng/mL, NA: no activity
Method: as §1

[7] = tested on: mouse choroidal explants (RPE/choroid/sclera complex); test: Microvascular sprouting on choroid explant as index of angiogenesis; type: cell-based; settings: 10^−6 M, 24 h, Matrigel-embedded mouse choroidal explants, n = 3–4
Method: Choroidal explants were set as described previously. Briefly, enucleated mice eyes with and without treatment with aza- and azasulfurylpeptides 1, 2 and 3c or [azaK^6]-GHRP-6 were collected and dissected to obtain the complex consisting of the RPE/choroid/sclera, which was cut in 16 explant fragments and cultured in 20 µL of Matrigel (BD biosciences, San Jose, CA, USA) in 24-wells plates (Sarstedt Inc., St. Leonard, QC, Canada). […] Phototographs of explants were taken under microscopy (T0 and T24 h). The explants were washed with endothelial basal medium (EBM) and incubated in EBM with NaCl or CD36 ligands at 10^−6 M for 24 h. The sprouting surface was assessed by image analysis using imagen J software. Ratios (sprouting surface at T24 h, sprouting surface at T0)/sprouting surface at T0 were determined. Numerical results were expressed as mean ± SEM. Data were compared using one-way ANOVA with Dunnett’s post-test. P < 0.05 was considered statistically significant (Prism software version 5.01; graphpad Software, San Diego, CA, USA).

Compound: C[C@H](NC(=O)[C@@H](Cc1c[nH]c2ccccc12)NC(=O)[C@@H](N)Cc1c[nH]cn1)C(=O)NN(Cc1ccc(F)cc1)S(=O)(=O)N[C@H](Cc1ccccc1)C(=O)N[C@@H](CCCCN)C(N)=O [3c, H-His-D-Trp-Ala-(4-F)AsF-D-Phe-Lys-NH2] (H-H[dW]A[X1]K-NH2)
- IC50 (CD36 [1]): 2.53 µM

Compound: H-Ala-D-Trp-Ala-AsF(4-F)-D-Phe-Lys-NH2 [3f]
- NO inhibition Fold of 1 [2]: -0.04 Fold of 1
- Inhibitory effect on R-FSL-elicited NO production (in words) [2]: limited inhibitory effect

Compound: H-His-D-Trp-Ala-(4-MeO)AsF-D-Phe-Lys-NH2 [3d]
- NO inhibition Fold of 1 [2]: 1.5 Fold of 1
- TNFα inhibition Fold of 1 [3]: 1.5 Fold of 1

Compound: H-His-D-Trp-Ala-AsF(4-HO)-D-Phe-Lys-NH2 [3b]
- NO inhibition Fold of 1 [2]: 0.2 Fold of 1

Compound: H-His-D-Trp-Ala-AsF-D-Phe-Lys-NH2 [3a]
- NO inhibition Fold of 1 [2]: 1.6 Fold of 1
- Inhibitory effect on R-FSL-elicited NO production (in words) [2]: reduced significantly NO production
- Decrease of IBA-1+ cell accumulation in the subretina [4]: 50%

Compound: H-His-D-Trp-Ala-AsNal-D-Phe-Lys-NH2 [3e]
- NO inhibition Fold of 1 [2]: 0.06 Fold of 1
- Inhibitory effect on R-FSL-elicited NO production (in words) [2]: limited inhibitory effect

Compound: His-D-Trp-Ala-aza(4-F)Phe-D-Phe-Lys-NH2 (H-H[dW]A[aza(4-F)Phe][dF]K-NH2; SMILES C[C@H](NC(=O)[C@@H](Cc1c[nH]c2ccccc12)NC(=O)[C@@H](N)Cc1c[nH]cn1)C(=O)NN(Cc1ccc(F)cc1)C(=O)N[C@H](Cc1ccccc1)C(=O)N[C@@H](CCCCN)C(N)=O) [compound 2, semicarbazide analog of GHRP-6, CD36 ligand]
- IC50 (CD36 [5]): 6.06 µM

Compound: His-D-Trp-Ala-aza(4-F)Phe-D-Phe-Lys-NH2 [compound 2, semicarbazide analog of GHRP-6, CD36 ligand]
- NO inhibition Fold of 1 [2]: 1.4 Fold of 1
- TNFα inhibition Fold of 1 [3]: 0.87 Fold of 1
- MCP-1 inhibition Fold of 1 [6]: 0.97 Fold of 1
- Decrease of IBA-1+ cell accumulation in the subretina [4]: 50%
- Effect on choroidal microvascular sprouting (in words) [7]: inhibited microvascular sprouting

Compound: His-D-Trp-Ala-azaTyr-D-Phe-Lys-NH2 (H-H[dW]A[azaTyr][dF]K-NH2; SMILES C[C@H](NC(=O)[C@@H](Cc1c[nH]c2ccccc12)NC(=O)[C@@H](N)Cc1c[nH]cn1)C(=O)NN(Cc1ccc(O)cc1)C(=O)N[C@H](Cc1ccccc1)C(=O)N[C@@H](CCCCN)C(N)=O) [compound 1, semicarbazide analog of GHRP-6, CD36 ligand]
- IC50 (CD36 [5]): 1.9 µM

Compound: His-D-Trp-Ala-azaTyr-D-Phe-Lys-NH2 [compound 1, semicarbazide analog of GHRP-6, CD36 ligand]
- NO inhibition Fold of 1 [2]: 1 ^a Fold of 1
- TNFα inhibition Fold of 1 [3]: 1 ^b Fold of 1
- MCP-1 inhibition Fold of 1 [6]: 1 ^c Fold of 1
- Decrease of IBA-1+ cell accumulation in the subretina [4]: 50%
- Effect on choroidal microvascular sprouting (in words) [7]: inhibited microvascular sprouting
